# Structures can show the parent of a compound that is named as a salt.
# Target: T1, recombinant sEH (Homo sapiens, UniProt P34913)
# T1 construct: made in house; host or cells: Sf9 insect cells
# T1 sequence (P34913 1-555): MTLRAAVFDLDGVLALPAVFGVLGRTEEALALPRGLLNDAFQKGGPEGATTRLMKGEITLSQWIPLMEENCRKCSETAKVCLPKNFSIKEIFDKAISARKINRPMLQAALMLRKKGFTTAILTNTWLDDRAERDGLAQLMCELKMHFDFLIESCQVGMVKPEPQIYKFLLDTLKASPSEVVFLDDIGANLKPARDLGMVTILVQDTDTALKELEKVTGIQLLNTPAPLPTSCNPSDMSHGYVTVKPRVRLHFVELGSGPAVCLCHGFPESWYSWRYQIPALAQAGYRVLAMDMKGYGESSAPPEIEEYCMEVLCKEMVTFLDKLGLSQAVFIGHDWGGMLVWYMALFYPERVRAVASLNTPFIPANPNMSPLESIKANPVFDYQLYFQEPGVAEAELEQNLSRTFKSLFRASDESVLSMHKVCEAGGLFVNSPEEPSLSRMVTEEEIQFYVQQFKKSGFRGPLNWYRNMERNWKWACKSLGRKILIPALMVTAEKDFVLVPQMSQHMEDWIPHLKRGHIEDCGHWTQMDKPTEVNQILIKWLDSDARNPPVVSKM
# Test: biochemical screening assay for inhibition of soluble epoxide hydrolase (fluorometric, Phome substrate)
# Procedure: The ability of the compounds of the formula I to inhibit soluble epoxide hydrolase can be determined as follows:
# Compounds were tested in a biochemical screening assay using recombinant sEH purified from Sf9 insect cells and an artificial substrate, (3-phenyl-oxiranyl)-acetic acid cyano-(6-methoxy-naphtalen-2-yl)-methyl ester, Phome. The biochemical assay was performed in analogy to a fluorometric method described in the literature (P. D. Jones et al., Anal. Biochem. 2005, 343, 66-75). The assay principle bases on the sEH-catalyzed hydrolysis of an artificial α-cyano-ester substrate. 0-deacetylation liberates a cyanohydrin intermediate that rapidly decomposes to the highly fluorescent 6-methoxy-2-naphtaldehyde. To discriminate sample autofluorescence, the assay was carried out as a kinetic measurement with two time points. The first measurement is performed immediately before addition of the substrate and the second measurement is done after completion of the assay. The assay format is either in 96- or in 384-well format. Details of the assay using a 96-well plate format are described below. 40 μL recombinant sEH enzyme and 5 μL test compound are pre-incubated for 15 minutes at 30° C. Following pre-incubation, the reaction is started by addition of 5 μL Phome. The assay mixture containing 2 nM final sEH concentration, test compound ranging in a concentration from 0.0001-10 μM and 5 μM Phome is incubated for 60 minutes at 30° C.
# Fluorescence can be measured with any suitable detector for instance a TECAN Safire or Tecan Ultra at […]. % inhibition of recombinant sEH activity is used for calculation of corresponding IC50 values as illustrated and described in the examples.
# The NCBI gene bank reference sequence with the accession number NM_001979 for EPHX2/sEH was applied for recombinant protein production:
# The following commercially available materials have been used: • Incubation reagent: 25 mM Hepes (Sigma-Aldrich, Cat. No H-3375), 0.01% bovine albumin (Sigma-Aldrich Cat. No PA9205) • Substrate: 3-Phenyl-oxiranyl)-acetic acid cyano-(6-methoxy-naphtalen-2-yl)-methyl ester, Phome (Biozol Cat. No 10003134) • Microtiter plates: 96-well plates (Greiner Cat. No 655180; Costar Cat. No 3915)
row,IC50 [nM],SMILES
1,305,"O=C(NC1CCCCC1)N[C@H]1CO[C@H]2[C@@H]1OC[C@H]2O [Example 1, 1-cyclohexyl-3-((3S,3aR,6R,6aR)-6-hydroxy-hexahydro-furo[3,2-b]furan-3-yl)-urea]"
2,19,"Cc1ccc(S(=O)(=O)O[C@@H]2CO[C@H]3[C@@H]2OC[C@@H]3NC(=O)NC2CCCCC2)cc1 [Example 2, toluene-4-sulfonic acid (3R,3aS,6S,6aR)-6-(3-cyclohexyl-ureido)-hexahydro-furo[3,2-b]furan-3-yl ester]"
3,12,"O=C(NC1CCCCC1)N[C@H]1CO[C@H]2[C@@H]1OC[C@@H]2Oc1ccccn1 [Example 3, 1-cyclohexyl-3-[(3S,3aR,6S,6aS)-6-(pyridin-2-yloxy)-hexahydro-furo[3,2-b]furan-3-yl]-urea]"
4,16,"O=C(NC1CCCCC1)N[C@H]1CO[C@H]2[C@@H]1OC[C@@H]2OC(=O)N1CCOCC1 [Example 4, morpholine-4-carboxylic acid (3S,3aS,6S,6aR)-6-(3-cyclohexyl-ureido)-hexahydro-furo[3,2-b]furan-3-yl ester]"
5,3,"O=C(NC1CCCCC1)N[C@H]1CO[C@H]2[C@@H]1OC[C@@H]2Oc1c[nH]c2ccccc12 [Example 5, 1-cyclohexyl-3-[(3S,3aR,6S,6aS)-6-(1H-indol-3-yloxy)-hexahydro-furo[3,2-b]furan-3-yl]-urea]"
6,8000,"O=C(NC1CCCCC1)N(Cc1ccccc1)[C@H]1CO[C@@H]2[C@@H](CO)CO[C@@H]21 [Example 6, 1-benzyl-3-cyclohexyl-1-((3S,3aR,6S,6aR)-6-hydroxymethyl-hexahydro-furo[3,2-b]furan-3-yl)-urea]"
7,258,"NC[C@H]1CO[C@H]2[C@@H]1OC[C@@H]2N(Cc1ccccc1)C(=O)NC1CCCCC1 [Example 7, 1-((3S,3aR,6S,6aR)-6-aminomethyl-hexahydro-furo[3,2-b]furan-3-yl)-1-benzyl-3-cyclohexyl-urea; trifluoroacetate]"
8,14500,"NC[C@H]1CO[C@H]2[C@@H]1OC[C@@H]2NC(=O)NC1CCCCC1 [Example 8, 1-((3S,3aR,6S,6aR)-6-aminomethyl-hexahydro-furo[3,2-b]furan-3-yl)-3-cyclohexyl-urea; trifluoroacetate]"
9,450,"CN(C)C[C@H]1CO[C@H]2[C@@H]1OC[C@@H]2NC(=O)NC1CCCCC1 [Example 9, 1-cyclohexyl-3-((3S,3aR,6S,6aR)-6-dimethylaminomethyl-hexahydro-furo[3,2-b]furan-3-yl)-urea; trifluoroacetate]"
10,3,"COC(=O)c1ccc(O[C@H]2CO[C@H]3[C@@H]2OC[C@@H]3NC(=O)NC2CCCCC2)cc1 [Example 10, 4-[(3S,3aS,6S,6aR)-6-(3-cyclohexyl-ureido)-hexahydro-furo[3,2-b]furan-3-yloxy]-benzoic acid methyl ester]"
11,5,"O=C(NC1CCCCC1)N[C@H]1CO[C@H]2[C@@H]1OC[C@@H]2Oc1ccc(C(=O)O)cc1 [Example 11, 4-[(3S,3aS,6S,6aR)-6-(3-cyclohexyl-ureido)-hexahydro-furo[3,2-b]furan-3-yloxy]-benzoic acid]"
12,1,"O=C(NC1CCCCC1)N[C@H]1CO[C@H]2[C@@H]1OC[C@@H]2SC1CCCCC1 [Example 12, 1-cyclohexyl-3-((3S,3aR,6S,6aS)-6-cyclohexylsulfanyl-hexahydro-furo[3,2-b]furan-3-yl)-urea]"
13,167,"O=C(NC1CCCCC1)N[C@H]1CO[C@H]2[C@@H]1OC[C@@H]2Nc1nccs1 [Example 13, 1-Cyclohexyl-3-[(3S,3aR,6S,6aR)-6-(thiazol-2-ylamino)-hexahydro-furo[3,2-b]furan-3-yl]-urea]"
14,19,"O=C(NC1CCCCC1)N[C@H]1CO[C@H]2[C@@H]1OC[C@@H]2SCCO [Example 14, 1-Cyclohexyl-3-[(3S,3aR,6S,6aS)-6-(2-hydroxy-ethylsulfanyl)-hexahydro-furo[3,2-b]furan-3-yl]-urea]"
15,< 1,"O=C(NC1CCCCC1)N[C@H]1CO[C@H]2[C@@H]1OC[C@@H]2Sc1ccc(F)cc1 [Example 15, 1-Cyclohexyl-3-[(3S,3aR,6S,6aS)-6-(4-fluoro-phenylsulfanyl)-hexahydro-furo[3,2-b]furan-3-yl]-urea]"
16,8,"CC(=O)NCCS[C@H]1CO[C@H]2[C@@H]1OC[C@@H]2NC(=O)NC1CCCCC1 [Example 16, N-{2-[(3S,3aS,6S,6aR)-6-(3-Cyclohexyl-ureido)-hexahydro-furo[3,2-b]furan-3-ylsulfanyl]-ethyl}-acetamide]"
17,1,"CC(C)S[C@H]1CO[C@H]2[C@@H]1OC[C@@H]2NC(=O)NC1CCCCC1 [Example 17, 1-Cyclohexyl-3-((3S,3aR,6S,6aS)-6-isopropylsulfanyl-hexahydro-furo[3,2-b]furan-3-yl)-urea]"
18,1,"COc1ccc(O[C@H]2CO[C@H]3[C@@H]2OC[C@@H]3NC(=O)NC2CCCCC2)cc1 [Example 18, 1-Cyclohexyl-3-[(3S,3aR,6S,6aS)-6-(4-methoxy-phenoxy)-hexahydro-furo[3,2-b]furan-3-yl]-urea]"
19,9,"O=C(NC1CCCCC1)N[C@H]1CO[C@H]2[C@@H]1OC[C@@H]2OCC(F)(F)F [Example 19, 1-Cyclohexyl-3-[(3S,3aR,6S,6aS)-6-(2,2,2-trifluoro-ethoxy)-hexahydro-furo[3,2-b]furan-3-yl]-urea]"
20,2,"Cc1nc(-c2ccccc2O[C@H]2CO[C@H]3[C@@H]2OC[C@@H]3NC(=O)NC2CCCCC2)cs1 [Example 20, 1-Cyclohexyl-3-{(3S,3aR,6S,6aS)-6-[2-(2-methyl-thiazol-4-yl)-phenoxy]-hexahydro-furo[3,2-b]furan-3-yl}-urea]"
21,1,"CC(C)(C)S[C@H]1CO[C@H]2[C@@H]1OC[C@@H]2NC(=O)NC1CCCCC1 [Example 21, 1-((3S,3aR,6S,6aS)-6-tert-Butylsulfanyl-hexahydro-furo[3,2-b]furan-3-yl)-3-cyclohexyl-urea]"
22,3,"CC(C)(CCO)S[C@H]1CO[C@H]2[C@@H]1OC[C@@H]2NC(=O)NC1CCCCC1 [Example 22, 1-Cyclohexyl-3-[(3S,3aR,6S,6aS)-6-(3-hydroxy-1,1-dimethyl-propylsulfanyl)-hexahydro-furo[3,2-b]furan-3-yl]-urea]"
23,1,"O=C(NC1CCCCC1)N[C@H]1CO[C@H]2[C@@H]1OC[C@@H]2Oc1ccccc1-c1ccccc1 [Example 23, 1-[(3S,3aR,6S,6aS)-6-(Biphenyl-2-yloxy)-hexahydro-furo[3,2-b]furan-3-yl]-3-cyclohexyl-urea]"
24,4,"O=C(NC1CCCCC1)N[C@H]1CO[C@H]2[C@@H]1OC[C@@H]2Oc1ccc(F)cc1 [Example 24, 1-Cyclohexyl-3-[(3S,3aR,6S,6aS)-6-(4-fluoro-phenoxy)-hexahydro-furo[3,2-b]furan-3-yl]-urea]"
25,8,"O=C(NC1CCCCC1)N[C@H]1CO[C@H]2[C@@H]1OC[C@@H]2SC1CCS(=O)(=O)C1 (stereo partly drawn) [Example 25, 1-Cyclohexyl-3-[(3S,3aR,6S,6aS)-6-(1,1-dioxo-tetrahydro-1λ6-thiophen-3-ylsulfanyl)-hexahydro-furo[3,2-b]furan-3-yl]-urea]"
26,454,"O=C(NC1CCCCC1)N[C@H]1CO[C@H]2[C@@H]1OC[C@@H]2Oc1ccccc1-c1nnn[nH]1 [Example 26, 1-Cyclohexyl-3-{(3S,3aR,6S,6aS)-6-[2-(1H-tetrazol-5-yl)-phenoxy]-hexahydro-furo[3,2-b]furan-3-yl}-urea]"
27,3,"O=C(NC1CCCCC1)N[C@H]1CO[C@H]2[C@@H]1OC[C@@H]2Oc1cccc(Oc2ccccc2)c1 [Example 27, 1-Cyclohexyl-3-[(3S,3aR,6S,6aS)-6-(3-phenoxy-phenoxy)-hexahydro-furo[3,2-b]furan-3-yl]-urea]"
28,8,"Cc1ccc(O[C@H]2CO[C@H]3[C@@H]2OC[C@@H]3NC(=O)NC2CCCCC2)cn1 [Example 28, 1-Cyclohexyl-3-[(3S,3aR,6S,6aS)-6-(6-methyl-pyridin-3-yloxy)-hexahydro-furo[3,2-b]furan-3-yl]-urea]"

# From patent US9540391B2, “Isomannide derivatives as inhibitors of soluble epoxide hydrolase” (SANOFI, priority 2013, dated 2017)
